Patent US9139581B2 (PORTOLA PHARMACEUTICALS, INC., priority 2008, dated 2015)

Target: T1, full length active recombinant SYK enzyme (Homo sapiens, UniProt P43405)
T1 construct: full length active recombinant SYK enzyme (Millipore, Calif.); purchased Millipore
Test: Inhibition of Syk tyrosine phosphorylation activity (LANCE TR-FRET)
Format: biochemical
Conditions: Table 3; 1 nM SYK, 100 μM ATP; read-out: Syk IC50 code
Method: The in vitro and in vivo human syk activities of the inventive compounds can be determined by various procedures known in the art, such as a test for their ability to inhibit the activity of human plasma syk. […] Inhibition of Syk Tyrosine Phosphorylation Activity Potency of candidate molecules for inhibiting syk tyrosine phosphorylation activity is assessed by measuring the ability of a test compound to inhibit syk-mediated tyrosine phosphorylation of a syk-specific substrate. SYK tyrosine phosphorylation activity is measured using the LANCETM Technology developed by Perkin Elmer Life and Analytical Sciences (Boston, Mass.). LANCETM refers to homogeneous time resolved fluorometry applications using techniques such as time-resolved fluorescence resonance energy transfer assay (TR-FRET) (see generally for procedures in Perkin Elmer Application Note-How to Optimize a Tyrosine Kinase Assay Using Time Resolved Fluorescence-Based LANCE Detection, wwww.perkinelmer.com/lifesciences). The assay principle involves detection of a phosphorylated substrate using energy transfer from a phosphospecific europium-labeled antibody to streptavidin-allophycocyanin as an acceptor. To test the ability of candidate molecules to inhibit SYK tyrosine phosphorylation activity, molecules are reconstituted in 30% DMSO and serially diluted 1:3 with the final dilution containing DMSO in the absence of the candidate molecule. The final DMSO concentration in the assay is 3%. Kinase assays are performed as a two part reaction. The first reaction is a kinase reaction and which comprises of a candidate molecule, full length active recombinant SYK enzyme (Millipore, Calif.) and biotin-labeled SYK-specific substrate biotin-[…]-OH. The second reaction involves termination of the kinase reaction and the simultaneous addition of the detection reagents-europium-labeled anti-phosphotyrosine reagent (Eu-W1024-PY100, Perkin Elmer, Boston, Mass.) and Streptavidin-Allophycocyanin detection reagent (SA-APC, Prozyme, Calif.). The kinase reaction is performed in a black U-bottom 96-well microtitre plate. […] The reaction is allowed to proceed for 1 hour at room temperature. […] The detection reagents are added to the reaction mixture at the following dilutions-1:500 for Eu-W1024-PY100 and 1:250 for SA-APC. The kinase reaction is terminated by the addition of 50 μL quench buffer containing the detection reagents. The detection is allowed to proceed for 1 hr at room temperature. Detection of the phosphorlated substrate in the absence and presence of inhibitors is measured in the TR-FRET instrument, Analyst HT ([…], Sunnyvale, Calif.) and the condition for measurements are set up using CriterionHost Release 2.0 ([…], Sunnyvale, Calif.). […] IC50s were derived by non-linear regression analysis.

| SMILES | IC50 [nM] |
| --- | --- |
| Cc1cc2c(NC3CCC3)nc(Nc3ccc4cn[nH]c4c3)nc2[nH]1 [Example 59, N4-cyclobutyl-N2-(1H-indazol-6-yl)-6-methyl-7H-pyrrolo[2,3-d]pyrimidine-2,4-diamine] | > 1000 |
| CNc1nc(Nc2ccc3cn[nH]c3c2)nc2[nH]cc(-c3cccnc3)c12 [Example 3, N2-(1H-indazol-6-yl)-N4-methyl-5-(pyridin-3-yl)-7H-pyrrolo[2,3-d]pyrimidine-2,4-diamine] | 10 to 100 |
| CC(=O)N1CCN(c2ccc(Nc3nc(N4CCCC(C(N)=O)C4)c4nc[nH]c4n3)cc2)CC1 (centres unmarked) [Example 118, 1-(2-(4-(4-acetylpiperazin-1-yl)phenylamino)-9H-purin-6-yl)piperidine-3-carboxamide] | 100 to 1000 |
| NC(=O)c1cccc(Nc2nc(Nc3ccc(N4CCNCC4)cc3)nc3[nH]ccc23)c1 [Example 95B, 3-(2-(4-(piperazin-1-yl)phenylamino)-7H-pyrrolo[2,3-d]pyrimidin-4-ylamino)benzamide] | 100 to 1000 |
| CC(=O)N(C)c1ccc(Nc2nc(NC3CC3)c3c(-c4ccncc4)c[nH]c3n2)cc1 [Example 47, N-(4-(4-(cyclopropylamino)-5-(pyridin-4-yl)-7H-pyrrolo[2,3-d]pyrimidin-2-ylamino)phenyl)-N-methylacetamide] | 10 to 100 |
| CC(=O)N(C)c1ccc(Nc2nc(NC3CCCCC3N)c3cc[nH]c3n2)cc1 (stereo not drawn) [Example 63, N-(4-(4-(2-aminocyclohexylamino)-7H-pyrrolo[2,3-d-]pyrimidin-2-ylamino)phenyl)-N-methylacetamide] | > 1000 |
| CC(=O)N(C)c1ccc(Nc2nc(NCCCCCN)c3c(Br)c[nH]c3n2)cc1 [Example 67, N-(4-(4-(5-aminopentylamino)-5-bromo-7H-pyrrolo[2,3-d]pyrimidin-2-ylamino)phenyl)-N-methylacetamide] | > 1000 |
| NC(=O)c1ccc(Nc2nc(NC3CC3)c3c(-c4ccncc4)c[nH]c3n2)cc1 [Example 101, 4-(4-(cyclopropylamino)-5-(pyridin-4-yl)-7H-pyrrolo[2,3-d]pyrimidin-2-ylamino)benzamide] | 10 to 100 |
| O=C1CCc2cc(Nc3ncc(F)c(N4CCC(CO)CC4)n3)ccc2N1 [Example 39, 6-(5-fluoro-4-(4-(hydroxymethyl)piperidin-1-yl)pyrimidin-2-ylamino)-3,4-dihydroquinolin-2(1H)-one] | 100 to 1000 |
| c1cc2c(NCCCN3CCOCC3)nc(Nc3ccc4cn[nH]c4c3)nc2[nH]1 [Example 61, N2-(1H-indazol-6-yl)-N4-(3-morpholinopropyl)-7H-pyrrolo[2,3-d]pyrimidine-2,4-diamine] | > 1000 |
| CC(=O)c1c[nH]c2nc(Nc3ccc4cn[nH]c4c3)nc(NC3CC3)c12 [Example 42, 1-(2-(1H-indazol-6-ylamino)-4-(cyclopropylamino)-7H-pyrrolo[2,3-d]pyrimidin-5-yl)ethanone] | 100 to 1000 |
| Nc1nc(Nc2ccc3cn[nH]c3c2)nc2[nH]ccc12 [Example 79, N^2-(1H-indazol-6-yl)-7H-pyrrolo[2,3-d]pyrimidin-2,4-diamine] | 100 to 1000 |
| NCC1CCN(c2nc(Nc3ccc4c(c3)CCC(=O)N4)ncc2Br)CC1 [Example 132, 6-(4-(4-(aminomethyl)piperidin-1-yl)-5-bromopyrimidin-2-ylamino)-3,4-dihydroquinolin-2(1H)-one] | 10 to 100 |
| CN(C(=O)CO)c1ccc(Nc2nc(NC3CC3)c3cc[nH]c3n2)cc1 [Example 75, N-(4-(4-(cyclopropylamino)-7H-pyrrolo[2,3-d]pyrimidin-2-ylamino)phenyl)-2-hydroxy-N-methylacetamide] | 10 to 100 |
| COCCNc1nc(Nc2ccc3cn[nH]c3c2)nc2[nH]ccc12 [Example 89, N^2-(1H-indazol-6-ylamino)-N^4-(2-methoxyethyl)-7H-pyrrolo[2,3-d]pyrimidine-2,4-diamine] | 100 to 1000 |
| CNC(=O)COc1cccc(Nc2nc(Nc3ccc4cn[nH]c4c3)nc3[nH]ccc23)c1 [Example 78] | 10 to 100 |
| NC(=O)c1c[nH]c2nc(Nc3ccc4c(c3)CCC(=O)N4)nc(NC3CC3)c12 [Example 108, 4-(cyclopropylamino)-2-(2-oxo-1,2,3,4-tetrahydroquinolin-6-ylamino)-7H-pyrrolo[2,3-d]pyrimidine-5-carboxamide] | > 1000 |
| CC(=O)N1CCN(c2ccc(Nc3nc(NCC4CCNCC4)c4c(C#N)c[nH]c4n3)cc2)CC1 [Example 45, 2-(4-(4-acetylpiperazin-1-yl)phenylamino)-4-(piperidin-4-ylmethylamino)-7H-pyrrolo[2,3-d]pyrimidine-5-carbonitrile] | 100 to 1000 |
| NC(=O)c1ccc(Nc2ncc(F)c(N[C@H]3CC[C@@H](N)CC3)n2)cc1 [Example 141, 4-(4-((1s,4s)-4-aminocyclohexylamino)-5-fluoropyrimidin-2-ylamino)benzamide] | 100 to 1000 |
| N#Cc1c[nH]c2nc(Nc3ccc(C(N)=O)cc3)nc(NC3CC3)c12 [Example 104, 4-(5-cyano-4-(cyclopropylamino)-7H-pyrrolo[2,3-d]pyrimidin-2-ylamino)benzamide] | 10 to 100 |
| N#CCC(=O)N1CCCC(Nc2nc(Nc3ccc(C(N)=O)cc3)nc3[nH]ccc23)C1 (centres unmarked) [Example 110, 4-(4-(1-(2-cyanoacetyl)piperidin-3-ylamino)-7H-pyrrolo[2,3-d]pyrimidin-2-ylamino)benzamide] | > 1000 |
| CC(C)(C)OC(=O)N1CCC(Nc2nc(Nc3ccc4cn[nH]c4c3)nc3[nH]ccc23)CC1 [Example 57, tert-butyl 4-(2-(1H-indazol-6-ylamino)-7H-pyrrolo[2,3-d]pyrimidin-4-ylamino)piperidine-1-carboxylate] | > 1000 |
| NCC1CCN(c2nc(Nc3ccc4c(c3)CCC(=O)N4)ncc2-c2ccncc2)CC1 [Example 138, 6-(4-(4-(aminomethyl)piperidin-1-yl)-5-(pyridin-4-yl)pyrimidin-2-ylamino)-3,4-dihydroquinolin-2(1H)-one] | > 1000 |

Same assay, conditions: Table 4; 1 nM SYK, 100 μM ATP; read-out: syk IC50

| SMILES | IC50 [nM] |
| --- | --- |
| CC(=O)N1CCN(c2ccc(Nc3nc(N4CC[C@H](O)C4)c4cc[nH]c4n3)cc2)CC1 [Example 13, (S)-1-(4-(4-(4-(3-hydroxypyrrolidin-1-yl)-7H-pyrrolo[2,3-d]pyrimidin-2-ylamino)phenyl)piperazin-1-yl)ethanone] | > 1000 |
| CC(=O)N1CCN(c2ccc(Nc3ncc(C(N)=O)c(N4CCCC(CO)C4)n3)cc2)CC1 (centres unmarked) [2-(4-(4-acetylpiperazin-1-yl)phenylamino)-4-(3-(hydroxymethyl)piperidin-1-yl)pyrimidine-5-carboxamide] | 100 to 1000 |
| CC(C)(C)OC(=O)NCC1CCCCN1c1nc(Nc2ccc3cn[nH]c3c2)ncc1F (centres unmarked) [Example 35, tert-butyl (1-(2-(1H-indazol-6-ylamino)-5-fluoropyrimidin-4-yl)piperidin-2-yl)methylcarbamate] | > 1000 |
| CC(=O)N1CCN(c2ccc(Nc3ncc(C(N)=O)c(N4CCCCC4CCO)n3)cc2)CC1 (centres unmarked) [2-(4-(4-acetylpiperazin-1-yl)phenylamino)-4-(2-(2-hydroxyethyl)piperidin-1-yl)pyrimidine-5-carboxamide] | > 1000 |
| CC(=O)N1CCN(c2ccc(Nc3nc(N4CCC(C(N)=O)CC4)c4cc[nH]c4n3)cc2)CC1 [Example 24, 1-(2-(4-(4-acetylpiperazin-1-yl)phenylamino)-7H-pyrrolo[2,3-d]pyrimidin-4-yl)piperidine-4-carboxamide] | 100 to 1000 |
| CC(=O)N1CCN(c2ccc(Nc3nc(N4CCCC4)c4cc[nH]c4n3)cc2)CC1 [Example 22, 1-(4-(4-(4-(pyrrolidin-1-yl)-7H-pyrrolo[2,3-d]pyrimidin-2-ylamino)phenyl)piperazin-1-yl)ethanone] | 100 to 1000 |
| CC(C)(C)OC(=O)NCC1CCN(c2nc(Nc3ccc(C(N)=O)cc3)ncc2F)CC1 [Example 30, tert-butyl (1-(2-(4-carbamoylphenylamino)-5-fluoropyrimidin-4-yl)piperidin-4-yl)methylcarbamate] | > 1000 |
| N[C@H]1CCCN(c2nc(Nc3ccc4cn[nH]c4c3)nc3[nH]ccc23)C1 [(S)-4-(3-aminopiperidin-1-yl)-N-(1H-indazol-6-yl)-7H-pyrrolo[2,3-d]pyrimidin-2-amine] | 100 to 1000 |
| NC[C@@H]1CCCN1c1nc(Nc2ccc3cn[nH]c3c2)nc2[nH]ccc12 [(S)-4-(2-(aminomethyl)pyrrolidin-1-yl)-N-(1H-indazol-6-yl)-7H-pyrrolo[2,3-d]pyrimidin-2-amine] | > 1000 |
